The target of this assay is Gastrin/cholecystokinin type B receptor (Bos taurus). As to the kind of experiment: Inhibitory activity against cholecystokinin type B receptor from bovine striatal binding assay.

The values below come from BindingDB's records for doi:10.1021/jm00100a033 (Roche Research Center, 1992).

*1 amine or outer side, *2 acyl side, *3 side chain or, on linkers, in order; H or OH if unused. Where a SMILES comes first, the peptide text is derived from it. Side-chain parts run from the residue outwards. [ ]: non-standard residue; d: D form. The star is where a group is joined. ξ: configuration not given here. Thz(5,5-Me2) = CC1(C)SCN[C@@H]1C(=O)O; NH(2-Me-phenyl) = Cc1ccccc1N*; ξF = NC(Cc1ccccc1)C(=O)O; Boc = CC(C)(C)OC(=O)*; CO = O=C([*:1])[*:2]

For `Cc1ccccc1NC(=O)NCCCC[C@H](NC(=O)[C@H](Cc1c[nH]c2ccccc12)NC(=O)OC(C)(C)C)C(=O)N1CSC(C)(C)[C@H]1C(=O)NC(Cc1ccccc1)C(N)=O` (stereo partly specified) [[1-[1-[4-(1-Carbamoyl-2-phenyl-ethylcarbamoyl)-5,5-dimethyl-thiazolidine-3-carbonyl]-5-(3-o-tolyl-ureido)-pentylcarbamoyl]-2-(1H-indol-3-yl)-ethyl]-carbamic acid tert-butyl ester] (Boc-WK([CO-NH(2-Me-phenyl)])[Thz(5,5-Me2)][ξF]-NH2), the IC50 (as a rule, the concentration that gives 50% inhibition) was 7.4 µM.
